{
  "source": "ChEMBL document CHEMBL1127960",
  "about": "“Latent leishmanicidal activity of quinazolinones and 1,2,4-triazoloquinazolinones” (1994)",
  "test_system": "Leishmania donovani",
  "assay": "In vitro leishmanicidal activity against promastigotes of Leishmania donovani at 100 ug/ml concentration",
  "format": "functional",
  "data": [
    {"compound": "CCOC(=O)c1c(SC)nn(-c2nc3cc(Cl)ccc3c(=O)n2C)c1N", "values": [
      {"measurement": "Leishmanicidal activity (% promastigotes killed)", "result": 0, "unit": "%"}
    ]},
    {"compound": "CCn1c(=O)c2ccc(Cl)cc2n2c(CSC3=NCCN3)nnc12", "values": [
      {"measurement": "Leishmanicidal activity (% promastigotes killed)", "result": 24, "unit": "%"}
    ]},
    {"compound": "CCn1c(=S)[nH]c2ccc(OC)cc2c1=O", "values": [
      {"measurement": "Leishmanicidal activity (% promastigotes killed)", "result": 12, "unit": "%"}
    ]},
    {"compound": "CCn1c(=O)c2ccc(Cl)cc2n2c(C)nnc12", "values": [
      {"measurement": "Leishmanicidal activity (% promastigotes killed)", "result": 49, "unit": "%"}
    ]},
    {"compound": "CCn1c(=O)c2cc(OC)ccc2n2cnnc12", "values": [
      {"measurement": "Leishmanicidal activity (% promastigotes killed)", "result": 39, "unit": "%"}
    ]},
    {"compound": "Cn1c(=O)c2ccc(Cl)cc2n2c(CCl)nnc12", "values": [
      {"measurement": "Leishmanicidal activity (% promastigotes killed)", "result": 95, "unit": "%"}
    ]},
    {"compound": "CCn1c(=O)c2ccc(Cl)cc2n2cnnc12", "values": [
      {"measurement": "Leishmanicidal activity (% promastigotes killed)", "result": 19, "unit": "%"}
    ]},
    {"compound": "Cn1c(=O)c2ccc(Cl)cc2n2cnnc12", "values": [
      {"measurement": "Leishmanicidal activity (% promastigotes killed)", "result": 81, "unit": "%"}
    ]},
    {"compound": "CCn1c(=O)c2ccc(Cl)cc2n2c(CCl)nnc12", "values": [
      {"measurement": "Leishmanicidal activity (% promastigotes killed)", "result": 70, "unit": "%"}
    ]},
    {"compound": "CCn1c(=O)c2cc(OC)ccc2n2c(C)nnc12", "values": [
      {"measurement": "Leishmanicidal activity (% promastigotes killed)", "result": 42, "unit": "%"}
    ]},
    {"compound": "CCn1c(SCc2nnc3n(CC)c(=O)c4ccc(Cl)cc4n23)nc2ccc(OC)cc2c1=O", "values": [
      {"measurement": "Leishmanicidal activity (% promastigotes killed)", "result": 0, "unit": "%"}
    ]},
    {"compound": "Cn1c(=O)c2ccc(Cl)cc2n2c(CSC3=NCCN3)nnc12", "values": [
      {"measurement": "Leishmanicidal activity (% promastigotes killed)", "result": 35, "unit": "%"}
    ]},
    {"compound": "CCn1c(NN)nc2ccc(OC)cc2c1=O", "values": [
      {"measurement": "Leishmanicidal activity (% promastigotes killed)", "result": 0, "unit": "%"}
    ]},
    {"compound": "CCn1c(=O)c2ccc(Cl)cc2n2c(S)nnc12", "values": [
      {"measurement": "Leishmanicidal activity (% promastigotes killed)", "result": 30, "unit": "%"}
    ]},
    {"compound": "CCOC(=O)c1c(SC)nn(-c2nc3cc(Cl)ccc3c(=O)n2CC)c1N", "values": [
      {"measurement": "Leishmanicidal activity (% promastigotes killed)", "result": 0, "unit": "%"}
    ]},
    {"compound": "CCn1c(=O)c2cc(OC)ccc2n2c(CCl)nnc12", "values": [
      {"measurement": "Leishmanicidal activity (% promastigotes killed)", "result": 67, "unit": "%"}
    ]},
    {"compound": "CCn1c(=O)c2cc(OC)ccc2n2c(S)nnc12", "values": [
      {"measurement": "Leishmanicidal activity (% promastigotes killed)", "result": 80, "unit": "%"}
    ]},
    {"compound": "CSc1nc2cc(Cl)ccc2c(=O)n1C", "values": [
      {"measurement": "Leishmanicidal activity (% promastigotes killed)", "result": 0, "unit": "%"}
    ]},
    {"compound": "CCn1c(SCc2nnc3n(C)c(=O)c4ccc(Cl)cc4n23)nc2ccc(OC)cc2c1=O", "values": [
      {"measurement": "Leishmanicidal activity (% promastigotes killed)", "result": 10, "unit": "%"}
    ]},
    {"compound": "Cn1c(=O)c2ccc(Cl)cc2n2c(S)nnc12", "values": [
      {"measurement": "Leishmanicidal activity (% promastigotes killed)", "result": 55, "unit": "%"}
    ]}
  ]
}
